Numbered stars: 1 amine (or outer) side, 2 acyl side, 3 side chain; on linkers, the order of the positions; unused ones are H or OH. Bridge positions count the residues as written; N and C are the ends. Square brackets hold non-standard residues; d marks the D form. Peptide text beside a SMILES is read from it. * marks the point of attachment. hPhe(3-Cl-4-CF3) = N[C@@H](CCc1ccc(C(F)(F)F)c(Cl)c1)C(=O)O; hPhe(3-F,4-CF3) = N[C@@H](CCc1ccc(C(F)(F)F)c(F)c1)C(=O)O; NEtPhe(4-Cl) = CCN[C@@H](Cc1ccc(Cl)cc1)C(=O)O; NMePhe(4-Cl) = CN[C@@H](Cc1ccc(Cl)cc1)C(=O)O; NMePhe(2-Cl) = CN[C@@H](Cc1ccccc1Cl)C(=O)O; NMedβ3hAla = C[C@H](CC(=O)[*:2])N(C)[*:1]; Phe(3-I) = N[C@@H](Cc1cccc(I)c1)C(=O)O; NMeCha = CN[C@@H](CC1CCCCC1)C(=O)O; Ala(cPr) = N[C@@H](CC1CC1)C(=O)O; NMeD = CN[C@@H](CC(=O)O)C(=O)O; NMeL = CN[C@@H](CC(C)C)C(=O)O; NMeV = CN[C@H](C(=O)O)C(C)C; d(β3hA) = C[C@@H](N)CC(=O)O; Iva = CC[C@](C)(N)C(=O)O; NMeA = CN[C@@H](C)C(=O)O; NMeAib = CNC(C)(C)C(=O)O; Nle = CCCC[C@H](N)C(=O)O; Piperidide = C1CCN(*)CC1; Pyrrolidide = C1CCN(*)C1; Ac5c = NC1(C(=O)O)CCCC1; Aze = O=C(O)[C@@H]1CCN1; Thp = NC1(C(=O)O)CCOCC1; Aib = CC(C)(N)C(=O)O; NPrGly = CCCNCC(=O)O; Sar = CNCC(=O)O
The compounds below were run on Human pancreatic cancer cell line AsPC-1 (G12D mutation Kras) (assay: AsPC-1 cell growth inhibition (AsPC-1 CGI)). Conditions: read-out: AsPC-1 cell growth inhibition, 50% growth inhibitory concentration (IC50 value); 96 hours, CellTiter-Glo, values classified in ranges.
Assay type: cell-based
Procedure: Test compounds were serially dilated with dimethyl sulfoxide, and 200 nL was then dispensed to a U-bottom 96-well plate using Labcyte Echo. […] The cell suspension was dispensed to a. plate containing a test compound at 100 μL per well and incubated at 37° C. in a 5% carbon dioxide gas incubator. 96 hours later, 80 μL of CellTiter-Glo (Promega) was added to each well and fluorescence was measured.
For CC[C@H](C)[C@@H]1NC(=O)[C@H](CC(C)C)N(C)C(=O)C[C@@H](C(=O)N2CCCCC2)N(C)C(=O)[C@H](C(C)C)N(C)C(=O)[C@](C)(CC)NC(=O)[C@@H]2CCCN2C(=O)[C@H](CCc2ccc(C(F)(F)F)c(Cl)c2)NC(=O)CN(C)C(=O)[C@H](CC2CCCCC2)N(C)C(=O)[C@@H]2CCN2C(=O)[C@H](C)N(C)C1=O [Compound 394] ([NMeL]I[NMeA][Aze][NMeCha][Sar][hPhe(3-Cl-4-CF3)]P[Iva][NMeV][NMeD]-Piperidide; lactam N-11), the IC50 was > 500 nM. For CC[C@H](C)[C@@H]1NC(=O)[C@H](CC(C)C)N(C)C(=O)C[C@@H](C)NC(=O)[C@H](CC(C)C)N(C)C(=O)C2(CCCC2)NC(=O)[C@@H]2CCCN2C(=O)[C@H](CCc2ccc(C(F)(F)F)c(F)c2)NC(=O)CN(C)C(=O)[C@H](CC2CCCCC2)N(C)C(=O)CN(C)C(=O)CN(C)C1=O [Compound 402] (cyclo([Ac5c][NMeL][d(β3hA)][NMeL]I[Sar][Sar][NMeCha][Sar][hPhe(3-F,4-CF3)]P)), the IC50 was > 500 nM. In the case of CCCN1CC(=O)N(C)[C@@H](CC2CCCCC2)C(=O)N(C)CC(=O)N[C@@H](CCc2ccc(C(F)(F)F)c(Cl)c2)C(=O)N2CCC[C@H]2C(=O)NC2(CCCC2)C(=O)N(C)[C@@H](C(C)C)C(=O)N[C@H](C)CC(=O)N(C)[C@@H](CC(C)C)C(=O)N[C@@H]([C@@H](C)CC)C(=O)N(C)CC1=O [Compound 405] (cyclo([Ac5c][NMeV][d(β3hA)][NMeL]I[Sar][NPrGly][NMeCha][Sar][hPhe(3-Cl-4-CF3)]P)), the IC50 is reported as > 500 nM. In the case of CC[C@H](C)[C@@H]1NC(=O)[C@H](CC(C)C)N(C)C(=O)C[C@@H](C)N(C)C(=O)[C@H](CC(C)C)N(C)C(=O)C2(CCOCC2)NC(=O)[C@@H]2CCCN2C(=O)[C@H](CCc2ccc(C(F)(F)F)c(F)c2)NC(=O)CN(C)C(=O)[C@H](CC2CCCCC2)N(C)C(=O)CN(C)C(=O)CN(C)C1=O [Compound 407] (cyclo(I[Sar][Sar][NMeCha][Sar][hPhe(3-F,4-CF3)]P[Thp][NMeL][NMedβ3hAla][NMeL])), the IC50 is reported as > 500 nM. For CC[C@H](C)[C@@H]1NC(=O)[C@H](CC(C)C)N(C)C(=O)C[C@@H](C(=O)N2CCCCC2)NC(=O)[C@H](C(C)C)N(C)C(=O)C2(CCCC2)NC(=O)[C@@H]2CCCN2C(=O)[C@H](CCc2ccc(C(F)(F)F)c(Cl)c2)NC(=O)CN(C)C(=O)[C@H](CC2CCCCC2)N(C)C(=O)CN(C)C(=O)CN(C)C1=O [Compound 417] ([NMeL]I[Sar][Sar][NMeCha][Sar][hPhe(3-Cl-4-CF3)]P[Ac5c][NMeV]D-Piperidide; lactam N-11), the IC50 was > 500 nM. For CC[C@H](C)[C@@H]1NC(=O)[C@H](C(C)C)N(C)C(=O)C[C@@H](C)NC(=O)[C@H](CC(C)C)N(C)C(=O)C2(CCCC2)NC(=O)[C@H](CC(C)C)N(C)C(=O)[C@H](CCc2ccc(C(F)(F)F)c(F)c2)NC(=O)CN(C)C(=O)[C@H](Cc2ccc(Cl)cc2)N(C)C(=O)[C@@H]2CCN2C(=O)CN(C)C1=O [Compound 418] (cyclo([Ac5c][NMeL][d(β3hA)][NMeV]I[Sar][Aze][NMePhe(4-Cl)][Sar][hPhe(3-F,4-CF3)][NMeL])), the IC50 was > 500 nM. With CC(C)C[C@H]1C(=O)N[C@@H](CC2CC2)C(=O)N(C)CC(=O)N(C)CC(=O)N(C)[C@@H](CC2CCCCC2)C(=O)N(C)CC(=O)N[C@@H](CCc2ccc(C(F)(F)F)c(Cl)c2)C(=O)N2CCC[C@H]2C(=O)NC2(CCCC2)C(=O)N(C)[C@@H](C(C)C)C(=O)N(C)[C@H](C(=O)N2CCCCC2)CC(=O)N1C [Compound 421] ([NMeL][Ala(cPr)][Sar][Sar][NMeCha][Sar][hPhe(3-Cl-4-CF3)]P[Ac5c][NMeV][NMeD]-Piperidide; lactam N-11) the IC50 was > 500 nM. CCCC[C@@H]1NC(=O)[C@H](Cc2cccc(I)c2)NC(=O)CN(C)C(=O)[C@H](Cc2ccc(Cl)cc2)N(CC)C(=O)CN(C)C(=O)CN(C)C(=O)[C@H]([C@@H](C)CC)NC(=O)[C@H](CC(C)C)N(C)C(=O)C[C@@H](C(=O)N2CCCCC2)N(C)C(=O)[C@H](CC(C)C)NC(=O)C(C)(C)N(C)C1=O [Compound 423] ([NMeL]I[Sar][Sar][NEtPhe(4-Cl)][Sar][Phe(3-I)][Nle][NMeAib]L[NMeD]-Piperidide; lactam N-11) was tested, and the IC50 was > 500 nM. In the case of CC[C@H](C)[C@@H]1NC(=O)[C@H](C)N(C)C(=O)C[C@@H](C(=O)N2CCCC2)N(C)C(=O)[C@H](C(C)C)N(C)C(=O)C(C)(C)NC(=O)[C@H](Cc2ccccc2Cl)N(C)C(=O)[C@H](CCc2ccc(C(F)(F)F)c(Cl)c2)NC(=O)CN(C)C(=O)[C@H](CC2CCCCC2)N(C)C(=O)CN(C)C(=O)CN(C)C1=O [Compound 426] ([NMeA]I[Sar][Sar][NMeCha][Sar][hPhe(3-Cl-4-CF3)][NMePhe(2-Cl)][Aib][NMeV][NMeD]-Pyrrolidide; lactam N-11), the IC50 is reported as > 500 nM.

Reference: patent publication US20240148821A1, “PHARMACEUTICAL USE OF CYCLIC PEPTIDE COMPOUND” (CHUGAI SEIYAKU KABUSHIKI KAISHA, priority 2021, published 2024)
